Test results from publication PMC10313827 (2023).

Test system: RhoBAST (RNA, aptamer) GGAACCUCCGCGAAAGCGGUGAAGGAGAGGCGCAAGGUUAACCGCCUCAGGUUCC
Assay: fluorescence titration, fixed dye, aptamer varied
Conditions: 125 mM KCl, 1 mM MgCl2; 20 mM HEPES pH 7.4, 0.05% Tween 20, 25 °C, 10 nM dye

CN(C)S(=O)(=O)N1C(=O)c2ccccc2C12c1ccc(N3CCC3)cc1Oc1cc(N3CCC3)ccc12 showed a KD of 100 ± 8 nM.
